Test results published in paper PMC4579270, “Identification and Characterization of an Irreversible Inhibitor of CDK2” (Chemistry & Biology, 2015).

Tests used:
Test in all cases: Dundee protein kinase screen
Format in all cases: biochemical
DYRK1A = DYRK1A (Homo sapiens, UniProt Q13627); conditions: read-out: %Remaining activity at 1µM NU6300
Method in brief: (§1)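 Selectivity panel of 131 protein kinases, inhibitor tested at a single concentration of 1 µM; values are % kinase activity remaining, mean of duplicates. Re-test of selected kinases used 0.5 µM in the standard format and again after a 4 hour pre-incubation with the inhibitor.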

ERK1 = ERK1 (Homo sapiens, UniProt P27361); conditions: ERK1, 1µM; read-out: %Remaining activity at 1µM NU6300
ERK1, sequence (P27361 whole entry): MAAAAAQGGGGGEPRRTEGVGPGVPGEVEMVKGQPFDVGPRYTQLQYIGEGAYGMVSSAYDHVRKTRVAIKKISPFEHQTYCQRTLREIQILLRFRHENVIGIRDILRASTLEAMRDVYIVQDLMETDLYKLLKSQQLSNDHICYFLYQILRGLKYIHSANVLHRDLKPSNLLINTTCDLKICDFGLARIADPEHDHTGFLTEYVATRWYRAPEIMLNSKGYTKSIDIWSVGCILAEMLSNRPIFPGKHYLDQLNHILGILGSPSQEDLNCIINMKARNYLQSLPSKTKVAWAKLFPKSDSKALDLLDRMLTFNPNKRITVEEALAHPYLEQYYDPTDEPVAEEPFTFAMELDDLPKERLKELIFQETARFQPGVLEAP
Method in brief: as §1

HIPK1 = HIPK1 (Homo sapiens, UniProt Q86Z02); conditions: HIPK1, 1µM; read-out: %Remaining activity at 1µM NU6300
Method in brief: as §1

HIPK2 = HIPK2 (Homo sapiens, UniProt Q9H2X6); conditions: HIPK2, 1µM; read-out: %Remaining activity at 1µM NU6300
Method in brief: as §1

IR = IR (Homo sapiens, UniProt P06213); conditions: read-out: %Remaining activity at 1µM NU6300
IR, sequence (P06213 28-1382): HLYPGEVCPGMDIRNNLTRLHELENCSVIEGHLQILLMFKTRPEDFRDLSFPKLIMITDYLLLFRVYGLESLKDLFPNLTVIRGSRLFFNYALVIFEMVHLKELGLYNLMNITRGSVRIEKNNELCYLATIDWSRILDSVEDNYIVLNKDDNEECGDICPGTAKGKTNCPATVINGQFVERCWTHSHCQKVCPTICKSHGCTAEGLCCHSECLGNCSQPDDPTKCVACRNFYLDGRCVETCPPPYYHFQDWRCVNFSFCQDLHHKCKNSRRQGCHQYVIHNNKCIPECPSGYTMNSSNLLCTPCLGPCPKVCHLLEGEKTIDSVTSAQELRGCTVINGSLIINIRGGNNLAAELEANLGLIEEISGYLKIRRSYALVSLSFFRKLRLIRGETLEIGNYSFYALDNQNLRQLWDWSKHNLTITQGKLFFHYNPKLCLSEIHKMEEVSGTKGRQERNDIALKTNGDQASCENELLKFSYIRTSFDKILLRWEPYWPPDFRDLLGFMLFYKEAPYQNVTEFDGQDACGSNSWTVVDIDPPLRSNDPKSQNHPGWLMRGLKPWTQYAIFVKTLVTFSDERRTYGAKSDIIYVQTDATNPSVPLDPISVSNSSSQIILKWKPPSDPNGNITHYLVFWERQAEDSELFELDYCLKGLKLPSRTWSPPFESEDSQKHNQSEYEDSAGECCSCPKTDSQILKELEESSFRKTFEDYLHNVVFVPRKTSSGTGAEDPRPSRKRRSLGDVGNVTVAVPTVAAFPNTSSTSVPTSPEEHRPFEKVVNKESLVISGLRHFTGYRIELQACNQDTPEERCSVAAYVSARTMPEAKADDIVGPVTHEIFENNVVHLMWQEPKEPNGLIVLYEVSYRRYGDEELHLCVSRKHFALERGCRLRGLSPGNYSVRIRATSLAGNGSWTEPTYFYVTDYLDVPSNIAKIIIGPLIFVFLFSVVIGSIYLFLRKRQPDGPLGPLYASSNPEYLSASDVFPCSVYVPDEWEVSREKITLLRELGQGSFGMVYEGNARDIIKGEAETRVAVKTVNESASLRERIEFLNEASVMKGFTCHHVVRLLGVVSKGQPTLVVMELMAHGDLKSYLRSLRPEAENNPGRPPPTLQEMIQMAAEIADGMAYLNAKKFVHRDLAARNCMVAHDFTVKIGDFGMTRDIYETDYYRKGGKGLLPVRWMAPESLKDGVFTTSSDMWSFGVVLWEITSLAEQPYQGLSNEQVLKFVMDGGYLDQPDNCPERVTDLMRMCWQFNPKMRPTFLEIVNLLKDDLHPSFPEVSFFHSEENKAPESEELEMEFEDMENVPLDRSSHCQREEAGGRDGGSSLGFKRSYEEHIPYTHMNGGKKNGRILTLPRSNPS
Method in brief: as §1

IRAK1 = IRAK1 (Homo sapiens, UniProt P51617); conditions: IRAK1, 1µM; read-out: %Remaining activity at 1µM NU6300
Method in brief: as §1

MEKK1 = MEKK1 (Homo sapiens, UniProt Q13233); conditions: MEKK1, 1µM; read-out: %Remaining activity at 1µM NU6300
Method in brief: as §1

MLK3 = MLK3 (Homo sapiens, UniProt Q16584); conditions: MLK3, 1µM; read-out: %Remaining activity at 1µM NU6300
MLK3, sequence (Q16584 whole entry): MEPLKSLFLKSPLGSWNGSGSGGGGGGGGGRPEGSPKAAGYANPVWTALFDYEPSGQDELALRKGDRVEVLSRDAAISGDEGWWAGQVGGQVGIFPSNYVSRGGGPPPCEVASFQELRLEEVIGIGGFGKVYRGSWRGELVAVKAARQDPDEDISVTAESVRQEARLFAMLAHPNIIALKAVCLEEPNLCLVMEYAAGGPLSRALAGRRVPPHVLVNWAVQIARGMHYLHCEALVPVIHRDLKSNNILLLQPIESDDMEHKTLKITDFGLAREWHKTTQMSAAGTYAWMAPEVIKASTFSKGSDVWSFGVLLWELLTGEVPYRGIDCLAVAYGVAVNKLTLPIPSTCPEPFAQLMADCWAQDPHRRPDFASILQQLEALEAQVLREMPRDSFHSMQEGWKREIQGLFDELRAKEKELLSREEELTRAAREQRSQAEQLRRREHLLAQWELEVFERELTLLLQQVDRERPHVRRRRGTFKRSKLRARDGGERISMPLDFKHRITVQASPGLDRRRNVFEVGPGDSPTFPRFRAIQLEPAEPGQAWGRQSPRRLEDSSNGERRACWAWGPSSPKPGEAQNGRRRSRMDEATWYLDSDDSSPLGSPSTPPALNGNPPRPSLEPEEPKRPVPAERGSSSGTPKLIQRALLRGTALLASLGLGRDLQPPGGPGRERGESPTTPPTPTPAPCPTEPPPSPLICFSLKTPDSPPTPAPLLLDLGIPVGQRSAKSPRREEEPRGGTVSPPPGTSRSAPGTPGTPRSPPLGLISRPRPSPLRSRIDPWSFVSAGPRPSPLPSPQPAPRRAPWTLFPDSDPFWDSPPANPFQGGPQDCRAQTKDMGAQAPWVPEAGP
Method in brief: as §1

NEK6 = NEK6 (Homo sapiens, UniProt Q9HC98); conditions: NEK6, 1µM; read-out: %Remaining activity at 1µM NU6300
NEK6, sequence (Q9HC98 whole entry): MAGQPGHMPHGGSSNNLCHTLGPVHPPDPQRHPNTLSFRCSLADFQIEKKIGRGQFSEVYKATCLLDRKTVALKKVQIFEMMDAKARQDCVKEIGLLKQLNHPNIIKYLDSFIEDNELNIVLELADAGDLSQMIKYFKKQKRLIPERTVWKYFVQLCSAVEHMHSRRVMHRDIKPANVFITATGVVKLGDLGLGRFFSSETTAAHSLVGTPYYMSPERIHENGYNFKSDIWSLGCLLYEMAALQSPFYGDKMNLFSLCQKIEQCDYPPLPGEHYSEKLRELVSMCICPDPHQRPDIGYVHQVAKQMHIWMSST
Method in brief: as §1

PAK2 = PAK2 (Homo sapiens, UniProt Q13177); conditions: PAK2, 1µM; read-out: %Remaining activity at 1µM NU6300
PAK2, sequence (Q13177 whole entry): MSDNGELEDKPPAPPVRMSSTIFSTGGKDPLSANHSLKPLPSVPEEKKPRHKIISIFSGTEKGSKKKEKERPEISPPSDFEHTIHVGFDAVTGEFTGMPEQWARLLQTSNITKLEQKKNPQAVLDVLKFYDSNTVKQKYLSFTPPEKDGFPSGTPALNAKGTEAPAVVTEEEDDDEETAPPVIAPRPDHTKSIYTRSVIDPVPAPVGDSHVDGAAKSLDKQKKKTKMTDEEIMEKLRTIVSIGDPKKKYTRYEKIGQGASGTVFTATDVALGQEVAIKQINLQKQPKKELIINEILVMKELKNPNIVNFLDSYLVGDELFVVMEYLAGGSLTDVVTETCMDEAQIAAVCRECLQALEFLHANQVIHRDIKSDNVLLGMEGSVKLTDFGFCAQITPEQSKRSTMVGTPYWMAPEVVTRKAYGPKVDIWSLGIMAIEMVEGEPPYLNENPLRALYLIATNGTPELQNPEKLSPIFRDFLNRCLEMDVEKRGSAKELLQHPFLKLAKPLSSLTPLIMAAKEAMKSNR
Method in brief: as §1

PIM3 = PIM3 (Homo sapiens, UniProt Q86V86); conditions: PIM3, 1µM; read-out: %Remaining activity at 1µM NU6300
Method in brief: as §1

RIPK2 = RIPK2 (Homo sapiens, UniProt O43353); conditions: RIPK2, 1µM; read-out: %Remaining activity at 1µM NU6300
Method in brief: as §1

SmMLCK = SmMLCK (Homo sapiens, UniProt Q15746); conditions: read-out: %Remaining activity at 1µM NU6300
SmMLCK, sequence (Q15746 923-1914): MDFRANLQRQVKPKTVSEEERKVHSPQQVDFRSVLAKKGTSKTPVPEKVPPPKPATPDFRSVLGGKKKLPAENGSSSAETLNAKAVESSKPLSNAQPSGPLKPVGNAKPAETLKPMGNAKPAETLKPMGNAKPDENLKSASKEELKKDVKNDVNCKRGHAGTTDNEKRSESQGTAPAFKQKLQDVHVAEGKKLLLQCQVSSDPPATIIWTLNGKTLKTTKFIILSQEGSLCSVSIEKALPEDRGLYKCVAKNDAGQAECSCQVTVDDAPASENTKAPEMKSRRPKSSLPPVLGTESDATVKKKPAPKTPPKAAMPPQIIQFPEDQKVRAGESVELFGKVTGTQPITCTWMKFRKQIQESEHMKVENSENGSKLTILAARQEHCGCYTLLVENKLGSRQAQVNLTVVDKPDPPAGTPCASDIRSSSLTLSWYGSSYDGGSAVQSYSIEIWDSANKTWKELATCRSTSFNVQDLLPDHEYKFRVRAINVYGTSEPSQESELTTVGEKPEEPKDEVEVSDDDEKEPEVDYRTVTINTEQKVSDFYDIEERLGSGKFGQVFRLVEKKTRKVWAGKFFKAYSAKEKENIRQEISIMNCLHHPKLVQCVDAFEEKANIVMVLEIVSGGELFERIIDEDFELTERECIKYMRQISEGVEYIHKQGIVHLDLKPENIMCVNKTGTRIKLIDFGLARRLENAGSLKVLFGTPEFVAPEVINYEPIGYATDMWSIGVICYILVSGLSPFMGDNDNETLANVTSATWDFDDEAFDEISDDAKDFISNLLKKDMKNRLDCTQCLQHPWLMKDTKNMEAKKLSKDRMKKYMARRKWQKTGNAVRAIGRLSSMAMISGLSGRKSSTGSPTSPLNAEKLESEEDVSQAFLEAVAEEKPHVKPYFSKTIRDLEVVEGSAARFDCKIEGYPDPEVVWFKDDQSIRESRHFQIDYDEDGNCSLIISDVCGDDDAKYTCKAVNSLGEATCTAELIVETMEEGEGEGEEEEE
Method in brief: as §1

TAO1 = biological target: T1, TAO1 (Homo sapiens, UniProt Q7L7X3); conditions: TAO1, 1µM; read-out: %Remaining activity at 1µM NU6300
T1 sequence (Q7L7X3 1-1001): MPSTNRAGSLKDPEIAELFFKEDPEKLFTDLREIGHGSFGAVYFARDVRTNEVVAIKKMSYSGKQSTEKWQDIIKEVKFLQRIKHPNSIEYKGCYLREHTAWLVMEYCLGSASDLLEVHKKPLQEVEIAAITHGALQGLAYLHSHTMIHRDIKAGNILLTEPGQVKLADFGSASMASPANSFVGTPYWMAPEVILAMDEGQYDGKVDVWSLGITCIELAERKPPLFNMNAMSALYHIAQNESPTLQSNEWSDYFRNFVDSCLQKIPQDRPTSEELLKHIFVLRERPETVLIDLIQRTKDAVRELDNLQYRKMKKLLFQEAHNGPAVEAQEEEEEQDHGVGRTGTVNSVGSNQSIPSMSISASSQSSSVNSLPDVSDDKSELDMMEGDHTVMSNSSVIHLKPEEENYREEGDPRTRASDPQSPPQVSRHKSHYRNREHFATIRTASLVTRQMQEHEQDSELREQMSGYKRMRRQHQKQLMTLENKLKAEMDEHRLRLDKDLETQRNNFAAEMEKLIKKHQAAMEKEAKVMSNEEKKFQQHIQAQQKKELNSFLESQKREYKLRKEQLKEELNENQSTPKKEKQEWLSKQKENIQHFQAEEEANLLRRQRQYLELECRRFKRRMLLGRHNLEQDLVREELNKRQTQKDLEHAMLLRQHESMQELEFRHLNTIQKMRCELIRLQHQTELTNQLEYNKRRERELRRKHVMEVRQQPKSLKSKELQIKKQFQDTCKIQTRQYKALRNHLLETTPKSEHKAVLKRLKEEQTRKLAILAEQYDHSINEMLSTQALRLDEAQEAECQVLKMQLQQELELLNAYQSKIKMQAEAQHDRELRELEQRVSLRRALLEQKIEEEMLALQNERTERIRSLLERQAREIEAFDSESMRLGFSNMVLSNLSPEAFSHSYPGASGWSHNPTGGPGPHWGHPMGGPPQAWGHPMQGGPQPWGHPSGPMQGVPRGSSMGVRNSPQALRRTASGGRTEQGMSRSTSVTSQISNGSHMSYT
Method in brief: as §1

C=CS(=O)(=O)c1ccc(Nc2nc(OCC3CCCCC3)c3nc[nH]c3n2)cc1 [NU6300, 6-(cyclohexylmethoxy)-N-(4-(vinylsulfonyl)phenyl)-9H-purin-2-amine]
remaining activity at 1 µM (DYRK1A): 73%
remaining activity at 1 µM (ERK1): 70%
remaining activity at 1 µM (HIPK1): 93%
remaining activity at 1 µM (HIPK2): 61%
remaining activity at 1 µM (IR): 32%
remaining activity at 1 µM (IRAK1): 37%
remaining activity at 1 µM (MEKK1): 89%
remaining activity at 1 µM (MLK3): 16%
remaining activity at 1 µM (NEK6): 70%
remaining activity at 1 µM (PAK2): 92%
remaining activity at 1 µM (PIM3): 56%
remaining activity at 1 µM (RIPK2): 86%
remaining activity at 1 µM (SmMLCK): 85%
remaining activity at 1 µM (TAO1): 27%
